From patent US20230372498A1, “PLK1 SELECTIVE DEGRADATION INDUCING COMPOUND” (UPPTHERA, priority 2020, published 2023)
Read-outs that look alike come from different tables or passages of the source. One block for each compound: values may come before it.

Molecular target: T1, PLK1 (Homo sapiens, UniProt P53350)
T1 construct: endogenous in cells; host or cells: HeLa
Experiment: PLK1 protein degradation in HeLa cells, Western blotting (PLK1/GAPDH ratio)
Assay type: cell-based
Settings: 6 hours compound incubation; for DC50: measured only if the grade of Dmax is A or B; for Dmax: thymidine block and release, 10 points three-fold from 3 μM, PLK1 to GAPDH ratio
Summary of the method: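 PLK1 level measured by Western blot as PLK1/GAPDH in HeLa lysates (15 μg protein per lane). Cells were blocked with 2 mM thymidine 24 h, released 4 h, and exposed 6 h to compound, 10 concentrations, 3-fold steps, top 3 μM.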

T1 sequence (P53350 whole entry): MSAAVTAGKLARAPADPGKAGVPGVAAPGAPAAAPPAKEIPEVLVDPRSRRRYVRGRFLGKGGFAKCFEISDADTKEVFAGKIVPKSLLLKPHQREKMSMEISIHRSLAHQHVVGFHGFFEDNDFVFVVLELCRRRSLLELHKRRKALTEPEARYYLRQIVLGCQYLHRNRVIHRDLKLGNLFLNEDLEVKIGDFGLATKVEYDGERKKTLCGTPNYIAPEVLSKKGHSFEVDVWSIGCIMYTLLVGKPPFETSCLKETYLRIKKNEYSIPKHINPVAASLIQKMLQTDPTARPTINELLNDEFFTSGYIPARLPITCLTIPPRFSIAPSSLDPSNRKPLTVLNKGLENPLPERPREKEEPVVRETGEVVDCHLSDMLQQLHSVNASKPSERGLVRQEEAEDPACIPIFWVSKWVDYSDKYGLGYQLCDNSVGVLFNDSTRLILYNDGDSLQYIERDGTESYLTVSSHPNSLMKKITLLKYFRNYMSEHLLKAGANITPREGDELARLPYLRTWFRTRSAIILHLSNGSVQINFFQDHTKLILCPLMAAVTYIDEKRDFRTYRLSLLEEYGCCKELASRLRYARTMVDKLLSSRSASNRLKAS

SMILES: COc1cc(C(=O)NC2CC3(C2)CN(C(=O)CCCCNc2cccc4c2C(=O)N(C2CCC(=O)NC2=O)C4=O)C3)c(F)cc1Nc1ncc2c(n1)N(C1CCCC1)CC(F)(F)C(=O)N2C (stereo not shown) [Compound 161, 4-((9-cyclopentyl-7,7-difluoro-5-methyl-6-oxo-6,7,8,9-tetrahydro-5H-pyrimido[4,5-b][1,4]diazepin-2-yl)amino)-N-(2-(5-((2-(2,6-dioxopiperidin-3-yl)-1,3-dioxoisoindolin-4-yl)amino)pentanoyl)-2-azaspiro[3.3]heptan-6-yl)-2-fluoro-5-methoxybenzamide]
DC50: ≤ 50 nM
Dmax (read-out: Dmax): ≥ 80%

SMILES: COc1cc(C(=O)NCCCCCNC(=O)COc2cccc3c2C(=O)N(C2CCC(=O)NC2=O)C3=O)c(F)cc1Nc1ncc2c(n1)N(C1CCCC1)CC(F)(F)C(=O)N2C (stereo not shown) [Compound 162, 4-((9-cyclopentyl-7,7-difluoro-5-methyl-6-oxo-6,7,8,9-tetrahydro-5H-pyrimido[4,5-b][1,4]diazepin-2-yl)amino)-N-(5-(2-((2-(2,6-dioxopiperidin-3-yl)-1,3-dioxoisoindolin-4-yl)oxy)acetamido)pentyl)-2-fluoro-5-methoxybenzamide]
DC50: ≤ 50 nM
Dmax (read-out: Dmax): ≥ 80%

SMILES: COc1cc(C(=O)NCCOCCOCCNc2ccc3c(c2)C(=O)N(C2CCC(=O)NC2=O)C3=O)c(F)cc1Nc1ncc2c(n1)N(C1CCCC1)CC(F)(F)C(=O)N2C (stereo not shown) [Compound 163, 4-((9-cyclopentyl-7,7-difluoro-5-methyl-6-oxo-6,7,8,9-tetrahydro-5H-pyrimido[4,5-b][1,4]diazepin-2-yl)amino)-N-(2-(2-(2-((2-(2,6-dioxopiperidin-3-yl)-1,3-dioxoisoindolin-5-yl)amino)ethoxy)ethoxy)ethyl)-2-fluoro-5-methoxybenzamide]
DC50: ≤ 500 nM
Dmax (read-out: Dmax): 60 to 80%

SMILES: COc1cc(C(=O)NCCCCCCc2cccc3c2CN(C2CCC(=O)NC2=O)C3=O)c(F)cc1Nc1ncc2c(n1)N(C1CCCC1)CC(F)(F)C(=O)N2C (stereo not shown) [Compound 164, 4-((9-cyclopentyl-7,7-difluoro-5-methyl-6-oxo-6,7,8,9-tetrahydro-5H-pyrimido[4,5-b][1,4]diazepin-2-yl)amino)-N-(6-(2-(2,6-dioxopiperidin-3-yl)-1-oxoisoindolin-4-yl)hexyl)-2-fluoro-5-methoxybenzamide]
DC50: ≤ 500 nM
Dmax (read-out: Dmax): 60 to 80%

SMILES: COc1cc(C(=O)NC2CCN(CCOCCOCCOCCOCC(=O)N[C@H](C(=O)N3C[C@H](O)C[C@H]3C(=O)NCc3ccc(-c4scnc4C)cc3)C(C)(C)C)CC2)c(F)cc1Nc1ncc2c(n1)N(C1CCCC1)CC(F)(F)C(=O)N2C [Example 82]
Dmax: C (C: less than 60%)

SMILES: COc1cc(C(=O)NC2CCN(CCOCCOCCOCCOCCOCC(=O)N[C@H](C(=O)N3C[C@H](O)C[C@H]3C(=O)NCc3ccc(-c4scnc4C)cc3)C(C)(C)C)CC2)c(F)cc1Nc1ncc2c(n1)N(C1CCCC1)CC(F)(F)C(=O)N2C [Example 83]
Dmax: C (C: less than 60%)

SMILES: COc1cc(C(=O)NC2CCN(CCCCCCCCOCC(=O)N[C@H](C(=O)N3C[C@H](O)C[C@H]3C(=O)NCc3ccc(-c4scnc4C)cc3)C(C)(C)C)CC2)c(F)cc1Nc1ncc2c(n1)N(C1CCCC1)CC(F)(F)C(=O)N2C [Example 84]
DC50: ≤ 500 nM
Dmax: B (B: Dmax is 80% or less and 60% or more)

SMILES: COc1cc(C(=O)NC2CCN(CCOCCOc3cc(-c4scnc4C)ccc3CNC(=O)[C@@H]3C[C@@H](O)CN3C(=O)[C@@H](NC(=O)C3(F)CC3)C(C)(C)C)CC2)c(F)cc1Nc1ncc2c(n1)N(C1CCCC1)CC(F)(F)C(=O)N2C [Example 85, (2S,4R)—N-(2-(2-(2-(4-(4-((9-cyclopentyl-7,7-difluoro-5-methyl-6-oxo-6,7,8,9-tetrahydro-5H-pyrimido[4,5-b][1,4]diazepin-2-yl)amino)-2-fluoro-5-methoxybenzamido)piperidin-1-yl)ethoxy)ethoxy)-4-(4-methylthiazol-5-yl)benzyl)-1-((S)-2-(1-fluorocyclopropane-1-carboxamido)-3,3-dimethylbutanoyl)-4-hydroxypyrrolidine-2-carboxamide]
Dmax (read-out: Dmax): < 60%

Second part, the compound after the results:

Dmax (read-out: Dmax): < 60%
SMILES: COc1cc(C(=O)NC2CCN(CCOCCOCCOCCOc3cc(-c4scnc4C)ccc3CNC(=O)[C@@H]3C[C@@H](O)CN3C(=O)[C@@H](NC(=O)C3(F)CC3)C(C)(C)C)CC2)c(F)cc1Nc1ncc2c(n1)N(C1CCCC1)CC(F)(F)C(=O)N2C [Example 87, (2S,4R)—N-(2-(2-(2-(2-(2-(4-(4-((9-cyclopentyl-7,7-difluoro-5-methyl-6-oxo-6,7,8,9-tetrahydro-5H-pyrimido[4,5-b][1,4]diazepin-2-yl)amino)-2-fluoro-5-methoxybenzamido)piperidin-1-yl)ethoxy)ethoxy)ethoxy)ethoxy)-4-(4-methylthiazol-5-yl)benzyl)-1-((S)-2-(1-fluorocyclopropane-1-carboxamido)-3,3-dimethylbutanoyl)-4-hydroxypyrrolidine-2-carboxamide]

DC50: ≤ 500 nM
Dmax (read-out: Dmax): 60 to 80%
SMILES: COc1cc(C(=O)NC2CCN(CCCCCCCCOc3cc(-c4scnc4C)ccc3CNC(=O)[C@@H]3C[C@@H](O)CN3C(=O)[C@@H](NC(=O)C3(F)CC3)C(C)(C)C)CC2)c(F)cc1Nc1ncc2c(n1)N(C1CCCC1)CC(F)(F)C(=O)N2C [Example 89, (2S,4R)—N-(2-((8-(4-(4-((9-cyclopentyl-7,7-difluoro-5-methyl-6-oxo-6,7,8,9-tetrahydro-5H-pyrimido[4,5-b][1,4]diazepin-2-yl)amino)-2-fluoro-5-methoxybenzamido)piperidin-1-yl)octyl)oxy)-4-(4-methylthiazol-5-yl)benzyl)-1-((S)-2-(1-fluorocyclopropane-1-carboxamido)-3,3-dimethylbutanoyl)-4-hydroxypyrrolidine-2-carboxamide]

DC50: ≤ 500 nM
Dmax (read-out: Dmax): 60 to 80%
SMILES: CCOc1cc(C(=O)NC2CCN(CCOCCOCCNc3cccc4c3C(=O)N(C3CCC(=O)NC3=O)C4=O)CC2)c(F)cc1Nc1ncc2c(n1)N(C1CCCC1)CC(F)(F)C(=O)N2C (stereo not shown) [Example 90, 4-((9-cyclopentyl-7,7-difluoro-5-methyl-6-oxo-6,7,8,9-tetrahydro-5H-pyrimido[4,5-b][1,4]diazepin-2-yl)amino)-N-(1-(2-(2-(2-((2-(2,6-dioxopiperidin-3-yl)-1,3-dioxoisoindolin-4-yl)amino)ethoxy)ethoxy)ethyl)piperidin-4-yl)-5-ethoxy-2-fluorobenzamide]

DC50: ≤ 500 nM
Dmax (read-out: Dmax): 60 to 80%
SMILES: CC(C)Oc1cc(C(=O)NC2CCN(CCOCCOCCNc3cccc4c3C(=O)N(C3CCC(=O)NC3=O)C4=O)CC2)c(F)cc1Nc1ncc2c(n1)N(C1CCCC1)CC(F)(F)C(=O)N2C (stereo not shown) [Example 91, 4-((9-cyclopentyl-7,7-difluoro-5-methyl-6-oxo-6,7,8,9-tetrahydro-5H-pyrimido[4,5-b][1,4]diazepin-2-yl)amino)-N-(1-(2-(2-(2-((2-(2,6-dioxopiperidin-3-yl)-1,3-dioxoisoindolin-4-yl)amino)ethoxy)ethoxy)ethyl)piperidin-4-yl)-2-fluoro-5-isopropoxybenzamide]

DC50: ≤ 50 nM
Dmax (read-out: Dmax): ≥ 80%
SMILES: CN1C(=O)C(F)(F)CN(C2CCCC2)c2nc(Nc3cc(F)c(C(=O)NC4CCN(CCOCCOCCNc5cccc6c5C(=O)N(C5CCC(=O)NC5=O)C6=O)CC4)cc3OC3CC3)ncc21 (stereo not shown) [Example 92, 4-((9-cyclopentyl-7,7-difluoro-5-methyl-6-oxo-6,7,8,9-tetrahydro-5H-pyrimido[4,5-b][1,4]diazepin-2-yl)amino)-5-cyclopropoxy-N-(1-(2-(2-(2-((2-(2,6-dioxopiperidin-3-yl)-1,3-dioxoisoindolin-4-yl)amino)ethoxy)ethoxy)ethyl)piperidin-4-yl)-2-fluorobenzamide]
